# What was measured:
# neutrophils (PMN) [1] = conditions: mouse, in vivo; cited from earlier work
# monocytes [2] = assay: MCP-1-induced monocyte accumulation in peritoneal cavity; format: in vivo; conditions: sc, 0.1 mg/kg per mouse s.c. 1 h prior to MCP-1
# Procedure: Monocyte chemoattractant protein-1 (MCP-1) given i.p. (1 μg) induces a selective accumulation of monocytes which is maximal at the 6 h post-injection (between 1-3 million monocytes per mouse), above the mild effect of the vehicle (0.25 ml of sterile saline) alone. After MCP-1 injection, animals are killed by CO2 exposure, and cavities washed with 3 ml of sterile PBS supplemented with 3 mM EDTA. Cells in the lavage fluids are stained in Turk's solution and differential counting is performed using a light microscope by a scientist unaware of the experimental groups. Monocyte influx is also confirmed by staining with F4/80 and FACS analysis. The effects of ILK inhibitors are determined in groups pre-treated with various concentrations of ILK inhibitor in systemic administration doses in the range of 10-300 mg/kg, administered every 1-4 hours prior to the cytokine, and up to the time of euthanasia (timing dependent on pharmacokinetics of specific ILK inhibitor). […] The positive control is dexamethasone which produces approximately 50% inhibition at the dose of 0.1 mg/kg per mouse given s.c. 1 h prior to MCP-1.
# monocytes [3] = assay: Zymosan-induced monocyte accumulation in peritoneal cavity (24 h); format: in vivo; conditions: Mus musculus, sc, given 2 h prior to zymosan, 24 h time-point
# Procedure: (§1) Zymosan (an insoluble inflammogen derived from the yeast wall, Ajuebor et al. (1998) J. Leukoc. Biol. 63, 108-116) is injected i.p. in mice, control animals receive only sterile saline. Cellular influx into the peritoneal cavities is evaluated either at the 4 h time-point (for PMN) or at 24 h (for monocytes), by killing animals by CO2 exposure, and washing the cavities with 3 ml of sterile PBS supplemented with 3 mM EDTA and 25 U/ml heparin. Cells in the lavage fluids are stained in Turk's solution and differential counting is performed with a light microscope.
# Monocyte accumulation at the 24 h time-point is in the order of 10-14 million cells per animal. The effect of known drugs on this parameter have not been well investigated, however it is sensitive to anti-chemokine therapy (i.e. antibodies to MCP-1) and to dexamethasone. The latter is the positive control with an approximate ED50 of 0.9 mg/kg s.c. (given 2 h prior to zymosan). The effects of ILK inhibitors are determined in groups pre-treated with various concentrations of ILK inhibitors, usually in systemic administration doses in the range of 10-300 mg/kg, and usually administered every 1-4 hours prior to the cytokine, and up to the 2 hours after (timing dependent on pharmacokinetics of specific ILK inhibitor).
# neutrophils (PMN) [4] = assay: Zymosan-induced PMN accumulation in mouse peritoneal cavity; format: in vivo
# Procedure: as §1
# PMN influx ranges between 15-20 million cells per mouse, and is sensitive to anti-chemokine (i.e. antibodies to MCP-1) and anti-adhesion reagents (i.e. antibody to CD11b) as well as to more classical anti-inflammatory drugs, e.g. PAF antagonists; indomethacin, 5-lipoxygenase inhibitors, etc. The positive control is dexamethasone, which reduces zymosan-induced PMN influx with an approximate ED50 of 0.9 mg/kg s.c. (given 2 h prior to zymosan). The effects of ILK inhibitors are determined in groups pre-treated with various concentrations of ILK inhibitors, usually in systemic administration doses in the range of 10-300 mg/kg, and usually administered every 1-4 hours prior to the cytokine, and up to the time of euthanasia, (dependent on pharmacokinetics of specific ILK inhibitor).
# neutrophils (PMN) [5] = assay: IL-1β-induced neutrophil accumulation in mouse dorsal air-pouch; format: in vivo; conditions: sc, given 2 h prior, 4 h, read-out: ED50 for inhibition of IL-1β-induced PMN migration
# Procedure: Acute accumulation of neutrophils (PMN) into a specific tissue site is a hallmark of the inflammatory response, and can be reproduced in vivo in the mouse following IL-1β injection into a preformed s.c. dorsal air-pouch. This model has the advantage of a quick (maximal at 4 h) and intense (between 5 and 8 million PMN per animal) response (Perretti & Flower (1993) J. Immunol. 150:992-999).
# Six-day-old air-pouches are formed on the back of mice by injection of 2.5 ml of air on day 0 and day 3. On day 6, 5 ng of murine recombinant IL-1β is injected into the air-pouch, or vehicle only, i.e. 0.5% carboxymethylcellulose in PBS. Cellular influx into the air-pouches is evaluated at the 4 h time-point, by killing animals by CO2 exposure, and washing the cavities with 2 ml of sterile PBS supplemented with 3 mM EDTA and 25 U/ml heparin. Cells in the lavage fluids are stained in Turk's solution and differential counting is done with a light microscope.
# This model is not sensitive to indomethacin and BWA4C, but is sensitive to PAF antagonists, anti-adhesion molecule reagents, tachykinin NK1 antagonists, etc. The effects of ILK inhibitors are determined in groups pre-treated with various concentrations of ILK inhibitors in systemic administration doses in the range of 10-300 mg/kg, administered every 1-4 hours prior to the cytokine, and up to the time of euthanasia.
# [6] = system: leukocyte-endothelium interaction; assay: Intravital microscopy of IL-1β-inflamed mouse mesenteric vascular bed; format: in vivo; conditions: 0.5 mg/kg s.c. 1 hour prior to IL-1β
# Procedure: Mice are injected i.p. with 20 ng mouse recombinant IL-1β and left at liberty until the beginning of the experiment. Control animals receive sterile saline alone (1 ml per rat i.p.). Animals are anaesthetised with Inactin™, shaved on the neck and abdominal areas, and a tracheotomy is performed to facilitate breathing during the experimentation. Cautery incisions are made along the abdominal line, the mesentery is exposed and placed on a viewing plexiglass stage.
# The preparation is mounted on a Zeiss Axioskop and is then transilluminated with a 12-V, 100-W halogen light source. […] A video time-date generator projects the time, date and stopwatch function onto the monitor.
# Particular care is taken to assure observation of the mesenteric vascular bed exactly 2 h after injection of the cytokine. Mesenteries are superfused with thermostated (37° C.) bicarbonate-buffered solution (pH=7.4, gassed with 5% CO2/95% N2) at a rate of 2 ml/min. Three to five randomly selected post-capillary venules (diameter between 20-40 μm; length of at least 100 μm) are observed for each rat. Off-line analysis is performed to quantify the extent of cell adhesion (the number of adherent leukocytes in 100 μm length vessel wall), and leukocyte emigration (the number of cells that had emigrated out of the vessel up to 50 μm, 50 to 100 μm and 100-150 μm away from the vessel wall in parallel with 100 μm vessel segments).
# IL-1β produces an intense response (>20 adherent cells per 100 μm length) that is modulated in part by endogenous PAF, ICAM-1 and the chemokine CINC. Therefore, agents that interfere with these mediators are identified using this technique. The effects of ILK inhibitors are determined in groups pre-treated with various concentrations of ILK inhibitors, in systemic administration doses in the range of 10-300 mg/kg, and administered every 1-4 hours prior to the cytokine, and up to the 2 hours after (timing dependent on pharmacokinetics of specific ILK inhibitor). Pre-treatment with ILK inhibitors is expected to result in a significant decrease in the number of leucocytes that are recruited.
# Mouse mesenteric vascular bed was inflamed with interleukin-1β. The anti-inflammatory properties of KP-401-A (an ILK inhibitor) were compared to dexamethasone (positive control) as determined by intravital microscopy. […]
# Cell rolling was measured by white blood cell velocity. Cell adhesion was quantified by counting, for each vessel, the number of adherent neutrophils in a 100 μm length. Leukocyte emigration from the microcirculation into the tissue was quantified by counting the number of cells that had emigrated up to 50 μm away from the wall of the 100 μm vessel segments. […]
# neutrophils (PMN) [7] = conditions: classical anti-inflammatory drugs; cited from earlier work
Compound,sensitivity of IL-1β air-pouch model to the drug (neutrophils (PMN) [1]),inhibition at 0.1 mg/kg (monocytes [2]) [%],ED50 (monocytes [3]) [mg/kg],"ED50 (neutrophils (PMN) [4]; Mus musculus, Neutrophil, sc, given 2 h prior to zymosan, 4 h time-point, read-out: ED50 for reduction of zymosan-induced PMN influx) [mg/kg]","PMN Accumulation (× 10^6 cells) ± SE (neutrophils (PMN) [4]; dose 1.5 mg/kg s.c., 60 min prior to and 60 min following i.p. Zymosan 1 mg/mouse, measured 4 h later, mean ± SE, n = 5)",ED50 (neutrophils (PMN) [5]) [mg/kg],Adherent Cells (no. 100 μm) ([6]; 2 hours after IL-1β),Emigrated Cells (no. 50 × 100 μm^2) ([6]; 2 hours after IL-1β),Cell Flux (no. per min) ([6]; observed 2 hours after IL-1β),"Cell Rolling (VWBC) ([6]; white blood cell velocity, 2 hours after IL-1β)",sensitivity of zymosan-induced PMN influx to the drug (neutrophils (PMN) [7])
CC(=O)N(O)C/C=C/c1cccc(Oc2ccccc2)c1 [BWA4C],not sensitive,,,,,,,,,,
C[C@@H]1C[C@H]2[C@@H]3CCC4=CC(=O)C=C[C@]4(C)[C@@]3(F)[C@@H](O)C[C@]2(C)[C@@]1(O)C(=O)CO [dexamethasone],,~50,~0.9,~0.9,4.0 ± 0.79 × 10^6 cells,~0.15,1.4 ± 0.1,1.8 ± 0.3,7.0 ± 1.5,17 ± 2.5,
COc1ccc2c(c1)c(CC(=O)O)c(C)n2C(=O)c1ccc(Cl)cc1 [indomethacin],not sensitive,,,,,,,,,,sensitive

# — patent publication US20030013640A1, “Integrin linked kinase modulation of leukocyte trafficking” (priority 2001, published 2003)
